IC50 data for 24 compounds are collected here from patent US8202885B2, “Bridged six-membered ring compounds” (Actelion Pharmaceuticals Ltd., priority 2007, dated 2012).

Usually IC50 stands for the concentration at which inhibition is half-maximal.

A value given as a limit tells only on which side of the number the result lay.

In this assay the test system is human Cav3.1 Cav3.2 or Cav3.3 channel. In words: In vitro assay T channel (FLIPR calcium fluorescence). It is filed as cell-based. The conditions noted are these: HEK293 cells expressing human Cav3.1, Cav3.2 or Cav3.3; 10 mM Ca2+-induced fluo-4 fluorescence; determined up to 10 μM; read-out: T channel antagonistic activity IC50. The essentials: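 HEK293 cells stably expressing human Cav3.1, Cav3.2 or Cav3.3 loaded with fluo-4 AM (3 μM), preincubated 3 min with antagonist, then stimulated with 10 mM Ca2+ in TEA-chloride/HEPES buffer pH 7.2. FLIPR fluorescence read every 2 s for 8 min; IC50 from peak area versus vehicle, tested up to 10 μM.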
On to `Cc1cc2cc(CCCN(C)CC[C@]3(OC(=O)C(C)C)C[C@H]4CC[C@@H]3C=C4c3ccccc3)cnc2o1` (relative stereo) [Example 42A, rac-Isobutyric acid (1R*,2R*,4R*)-2-(2-{methyl-[3-(2-methyl-furo[2,3-b]pyridin-5-yl)-propyl]-amino}-ethyl)-5-phenyl-bicyclo[2.2.2]oct-5-en-2-yl ester], for which the IC50 is above 10 µM.

As for `CCOc1cccc2nc(CCCN(C)CC[C@]3(OC(=O)C(C)C)C[C@H]4CC[C@@H]3C=C4c3ccccc3)[nH]c12` (relative stereo) [Example 31A, rac-Isobutyric acid (1R*,2R*,4R*)-2-(2-{[3-(7-ethoxy-1H-benzoimidazol-2-yl)-propyl]-methyl-amino}-ethyl)-5-phenyl-bicyclo[2.2.2]oct-5-en-2-yl ester], the IC50 turned out to be 2.6 µM.

Turning to `CN(CCCc1cnc2occc2c1)CC[C@]1(O)C[C@H]2CC[C@@H]1C=C2c1ccccc1` (relative stereo) [Example 41, rac-(1R*,2R*,4R*)-2-{2-[(3-Furo[2,3-b]pyridin-5-yl-propyl)-methyl-amino]-ethyl}-5-phenyl-bicyclo[2.2.2]oct-5-en-2-ol], the IC50 is above 10 µM.

Turning to `CC(C)C(=O)O[C@@]1(CCN(C)CCCc2nc3c(OC(F)(F)F)cccc3[nH]2)C[C@H]2CC[C@@H]1C=C2c1ccccc1` (relative stereo) [Example 68A, rac-Isobutyric acid (1R*,2R*,4R*)-2-(2-{methyl-[3-(4-trifluoromethoxy-1H-benzoimidazol-2-yl)-propyl]-amino}-ethyl)-5-phenyl-bicyclo[2.2.2]oct-5-en-2-yl ester], the IC50 is 0.839 µM.

Regarding `CN(CCCc1nc2ccccc2[nH]1)CC[C@]1(O)C[C@H]2CC[C@@H]1C[C@]21OCc2ccccc21` (relative stereo) [Example 80, rac-(1R*,2S*,4R*,5R*)-5-(2-{[3-(1H-Benzoimidazol-2-yl)-propyl]-methyl-amino}-ethyl)-3′H-spiro(bicyclo[2.2.2]octane-2,1′-isobenzofuran)-5-ol], the IC50 was found to be 3.71 µM.

Regarding `CCOc1ccc(CCCN(C)CC[C@]2(OC(=O)C(C)C)C[C@H]3CC[C@@H]2C=C3c2ccccc2)cc1OCC` (relative stereo) [Example 40A, rac-Isobutyric acid (1R*,2R*,4R*)-2-(2-{[3-(3,4-diethoxy-phenyl)-propyl]-methyl-amino}-ethyl)-5-phenyl-bicyclo[2.2.2]oct-5-en-2-yl ester], the IC50 was found to be 8.93 µM.

In the case of `Cc1cccc(C)c1C1=C[C@H]2CC[C@@H]1C[C@]2(CCN(C)CCCc1nc2ccccc2[nH]1)OC(=O)C(C)C` (relative stereo) [Example 3A, rac-Isobutyric acid (1R*,2R*,4R*)-2-(2-{[3-(1H-benzoimidazol-2-yl)-propyl]-methyl-amino}-ethyl)-5-(2,6-dimethyl-phenyl)-bicyclo[2.2.2]oct-5-en-2-yl ester], the IC50 stood at 4.6 µM.

For the compound `COCC(C)(COC)C(=O)N(C)CCCN(C)CC[C@@]1(OC(=O)C(C)C)C[C@H]2CC[C@@H]1C(c1ccccc1)=C2C` (relative stereo) [Example 53C, rac-Isobutyric acid (1R*,2S*,4R*)-2-[2-({3-[(3-methoxy-2-methoxymethyl-2-methyl-propionyl)-methyl-amino]-propyl}-methyl-amino)-ethyl]-5-methyl-6-phenyl-bicyclo[2.2.2]oct-5-en-2-yl ester], the IC50 worked out at 0.906 µM.

`COc1cccc2[nH]c(CCCN(C)CCC3(OC(=O)C(C)C)CC4CCC3C=C4c3ccccc3)nc12` [Example 54A, Isobutyric acid (1R,2R,4R)-2-(2-{[3-(4-methoxy-1H-benzoimidazol-2-yl)-propyl]-methyl-amino}-ethyl)-5-phenyl-bicyclo[2.2.2]oct-5-en-2-yl ester or isobutyric acid (1S,2S,4S)-2-(2-{[3-(4-methoxy-1H-benzoimidazol-2-yl)-propyl]-methyl-amino}-ethyl)-5-phenyl-bicyclo[2.2.2]oct-5-en-2-yl ester]: the IC50 is 1.14 µM.

`COc1cc(OC)c2nc(CCCN(C)CC[C@]3(OC(=O)C(C)C)C[C@H]4CC[C@@H]3C=C4c3ccccc3)[nH]c2c1` (relative stereo) [Example 59A, rac-Isobutyric acid (1R*,2R*,4R*)-2-(2-{[3-(4,6-dimethoxy-1H-benzoimidazol-2-yl)-propyl]-methyl-amino}-ethyl)-5-phenyl-bicyclo[2.2.2]oct-5-en-2-yl ester]: the IC50 was found to be 0.952 µM.

Consider `COc1ccc2[nH]c(CCCN(C)CC[C@]3(O)C[C@H]4CC[C@@H]3C=C4c3ccccc3)nc2c1` (relative stereo) [Example 29, rac-(1R*,2R*,4R*)-2-(2-{[3-(5-Methoxy-1H-benzoimidazol-2-yl)-propyl]-methyl-amino}-ethyl)-5-phenyl-bicyclo[2.2.2]oct-5-en-2-ol], for which the IC50 was above 10 µM.

Take `CC(C)C(=O)O[C@@]1(CCN(C)CCCc2nc3ccccc3[nH]2)C[C@H]2CC[C@@H]1C[C@]21OCc2ccccc21` (relative stereo) [Example 80A, rac-Isobutyric acid (1R*,2S*,4R*,5R*)-5-(2-{[3-(1H-benzoimidazol-2-yl)-propyl]-methyl-amino}-ethyl)-3′H-spiro(bicyclo[2.2.2]octane-2,1′-isobenzofuran)-5-yl ester]: the IC50 was found to be 4.18 µM.

As for `CC(C)C(=O)OC1(CCN(C)CCCc2nc3ccccc3[nH]2)CC2CCC1C1=C2CCc2ccccc21` (racemic) [Example 18A, rac-Isobutyric acid (1R*,3R*,4R*)-1,2,3,4,9,10-hexahydro-3-hydroxy-3-{N-methyl-N-(3-benzimidazol-2-ylpropyl)aminoethyl}-1,4-ethanophenanthrene ester], the 50% inhibitory concentration (IC50) worked out at 2.05 µM.

As for `CN(CCCc1nc2ccccc2[nH]1)CC[C@]1(O)C[C@H]2CC[C@@H]1C=C2c1cccs1` (relative stereo) [Example 21, rac-(1R*,2R*,4R*)-2-(2-{[3-(1H-Benzoimidazol-2-yl)-propyl]-methyl-amino}-ethyl)-5-thiophen-2-yl-bicyclo[2.2.2]oct-5-en-2-ol], the IC50 stood at 3.47 µM.

Consider “rac-(1R*,3R*,4R*)-1,2,3,4,9,10-Hexahydro-3-hydroxy-3-{N-methyl-N-(3-benzimidazol-2-ylpropyl)aminoethyl}-1,4-ethanophenanthrene [Example 18]”, for which the IC50 came out at 1.34 µM.

As for `CC(C)C(=O)O[C@@]1(CCN(C)CCCc2cnc3occc3c2)C[C@H]2CC[C@@H]1C=C2c1ccccc1` (relative stereo) [Example 41A, rac-Isobutyric acid (1R*,2R*,4R*)-2-{2-[(3-furo[2,3-b]pyridin-5-yl-propyl)-methyl-amino]-ethyl}-5-phenyl-bicyclo[2.2.2]oct-5-en-2-yl ester], the IC50 was determined as 8.26 µM.

Consider `COc1ccccc1C1=CC2CCC1CC2(O)CCN(C)CCCc1nc2ccccc2[nH]1` (racemic) [Example 23, rac-(1R*,2R*,4R*)-2-(2-{[3-(1H-Benzoimidazol-2-yl)-propyl]-methyl-amino}-ethyl)-5-(2-methoxy-phenyl)-2-yl-bicyclo[2.2.2]oct-5-en-2-ol], for which the IC50 was found to be 3.31 µM.

Take `COc1ccc(C)c2nc(CCCN(C)CC[C@]3(OC(=O)C(C)C)C[C@H]4CC[C@@H]3C=C4c3ccccc3)[nH]c12` (relative stereo) [Example 30A, rac-Isobutyric acid (1R*,2R*,4R*)-2-(2-{[3-(7-methoxy-4-methyl-1H-benzoimidazol-2-yl)-propyl]-methyl-amino}-ethyl)-5-phenyl-bicyclo[2.2.2]oct-5-en-2-yl ester]: the IC50 is 1.25 µM.

For `COc1ccc(OC)c2[nH]c(CCCN(C)CC[C@]3(OC(=O)C(C)C)C[C@H]4CCC[C@@H]3C=C4c3ccccc3)nc12` (relative stereo) [Example 69A, rac-Isobutyric acid (1R*,5R*,6R*)-6-(2-{[3-(4,7-dimethoxy-1H-benzoimidazol-2-yl)-propyl]-methyl-amino}-ethyl)-8-phenyl-bicyclo[3.2.2]non-8-en-6-yl ester], the IC50 was found to be 0.727 µM.

In the case of `Cc1cccc(C2=C[C@H]3CC[C@@H]2C[C@@]3(O)CCN(C)CCCc2nc3ccccc3[nH]2)c1` (relative stereo) [Example 5, rac-(1R*,2R*,4R*)-2-(2-{[3-(1H-Benzoimidazol-2-yl)-propyl]-methyl-amino}-ethyl)-5-(3-methyl-phenyl)-bicyclo[2.2.2]oct-5-en-2-ol], the IC50 is 8.42 µM.

As for `COCC(C)(COC)C(=O)N(C)CCCN(C)CC[C@]1(OC(=O)C(C)C)C[C@H]2CC[C@@H]1C=C2c1ccccc1` (relative stereo) [Example 51A, rac-Isobutyric acid (1R*,2R*,4R*)-2-[2-({3-[(3-methoxy-2-methoxymethyl-2-methyl-propionyl)-methyl-amino]-propyl}-methyl-amino)-ethyl]-5-phenyl-bicyclo[2.2.2]oct-5-en-2-yl ester], the IC50 stood at 4.43 µM.

In the case of `COc1cccc2[nH]c(CCCN(C)CC[C@]3(OC(=O)C(C)C)C[C@H]4CCC[C@@H]3C=C4c3ccccc3)nc12` (relative stereo) [Example 36A, rac-Isobutyric acid (1R*,5R*,6R*)-6-(2-{[3-(4-methoxy-1H-benzoimidazol-2-yl)-propyl]-methyl-amino}-ethyl)-8-phenyl-bicyclo[3.2.2]non-8-en-6-yl ester], the IC50 was determined as 1.01 µM.

Regarding `COc1ccc(C)c2nc(CCCN(C)CC[C@]3(OC(=O)C(C)C)C[C@H]4CCC[C@@H]3C=C4c3ccccc3)[nH]c12` (relative stereo) [Example 66A, rac-Isobutyric acid (1R*,5R*,6R*)-6-(2-{[3-(7-methoxy-4-methyl-1H-benzoimidazol-2-yl)-propyl]-methyl-amino}-ethyl)-8-phenyl-bicyclo[3.2.2]non-8-en-6-yl ester], the IC50 amounted to 0.68 µM.

Regarding `CC(C)C(=O)O[C@]1(CCN(C)CCCc2nc3ccccc3[nH]2)C[C@@H]2CC[C@H]1CN2c1ccccc1` [Example 74A, Isobutyric acid (1S,4S,5R)-5-(2-{[3-(1H-benzoimidazol-2-yl)-propyl]-methyl-amino}-ethyl)-2-phenyl-2-aza-bicyclo[2.2.2]oct-5-yl ester], the concentration for half-maximal inhibition (IC50) is 8.6 µM.
